# Results taken from patent US20050069517A1, “Hair conditioning compositions” (priority 2003, published 2005).
# Test: Hair penetration by TOF-SIMS imaging of cross sections of treated hair fibers
# Type: physicochemical, human
# Conditions: bleached dark brown European hair; agent massaged in, 24 hours at approximately 32° C., rinsed 1 minute, air-dried; positive-ion TOF-SIMS images
# Protocol: What is meant by “penetrate” is that the hair conditioning agent is deposited into a region of the hair following application of the conditioning agent to the hair for twenty-four hours. Such analysis of hair penetration is set forth below in Example 8.
# Various hair conditioning agents were tested for their ability to penetrate into human hair. Secondary ion mass spectrometry (SIMS) in combination with a time of flight (TOF) mass spectrometer was used to determine hair penetration. Time-Of-Flight Secondary Ion Mass Spectrometry (TOF-SIMS) makes use of the secondary ion mass spectra (of atomic species or low molecular weight fragments), which are formed when the sample surface (e.g., surface of hair fiber cross sections) is bombarded with a positively charged gallium ion beam. The positive and negative ion mass spectra of the sample were obtained by the time-of-flight method. See, e.g., Ruetsch, et al., J. Cosmet. Sci., 52, 169-184 (2001). The Gallium gun, which emits a pulsed primary ion beam (accelerating voltage of 25 kV), was used in the study.
# The protocol was as follows. Dark brown European hair obtained from DeMeo Brothers, New York, N.Y. was bleached for 30 minutes with alkaline 6% hydrogen peroxide (adjusted to pH 10.2 with ammonium hydroxide). […]
smiles,measurement,value
CCCCCCCCCCCCCCCC(=O)N[C@@H](CO)C(=O)OCCCCCCCCCCCCCC [Palmitoyl Myristyl Serinate],penetration of hair conditioning agent into hair fiber cross section,not detected in the cross section of treated hair
